Columns and labels:
hTRPC5-T478C [1] = target: T1, hTRPC5-T478C (Homo sapiens, UniProt Q9UL62); assay: hTRPC5-T478C FLIPR calcium flux IC50 assay; assay type: cell-based; settings: hTRPC5-T478C-HEK cells, Englerin A as channel agonist
T1 sequence (Q9UL62 1-973): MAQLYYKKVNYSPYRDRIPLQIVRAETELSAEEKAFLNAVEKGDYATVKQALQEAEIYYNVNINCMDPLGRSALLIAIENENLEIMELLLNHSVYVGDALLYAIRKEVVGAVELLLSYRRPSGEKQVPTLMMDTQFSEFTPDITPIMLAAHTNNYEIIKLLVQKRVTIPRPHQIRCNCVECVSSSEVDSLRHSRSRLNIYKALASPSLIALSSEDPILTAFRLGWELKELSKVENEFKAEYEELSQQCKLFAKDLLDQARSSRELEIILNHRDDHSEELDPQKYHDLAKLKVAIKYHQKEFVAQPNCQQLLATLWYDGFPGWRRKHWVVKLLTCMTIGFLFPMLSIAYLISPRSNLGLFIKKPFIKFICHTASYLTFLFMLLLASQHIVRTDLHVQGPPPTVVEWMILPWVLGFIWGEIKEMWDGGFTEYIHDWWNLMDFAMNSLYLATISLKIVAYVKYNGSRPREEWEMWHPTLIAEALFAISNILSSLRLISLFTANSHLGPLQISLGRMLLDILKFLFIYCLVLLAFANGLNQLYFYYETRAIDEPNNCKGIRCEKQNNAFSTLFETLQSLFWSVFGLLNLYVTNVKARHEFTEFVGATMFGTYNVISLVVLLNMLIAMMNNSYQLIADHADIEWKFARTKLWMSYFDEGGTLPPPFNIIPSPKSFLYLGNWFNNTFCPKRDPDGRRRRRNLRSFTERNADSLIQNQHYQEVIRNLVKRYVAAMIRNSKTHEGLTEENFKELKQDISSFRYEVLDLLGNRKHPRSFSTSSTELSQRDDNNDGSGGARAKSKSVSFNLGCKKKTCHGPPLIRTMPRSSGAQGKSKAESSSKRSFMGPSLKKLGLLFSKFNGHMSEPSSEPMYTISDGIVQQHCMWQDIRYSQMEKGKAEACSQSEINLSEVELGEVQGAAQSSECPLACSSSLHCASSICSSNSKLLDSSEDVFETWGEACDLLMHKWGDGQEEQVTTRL
Protocol: (§1) Cell culture: hTRPC5-T478C-HEK cells were cultured in a humid environment in 5% CO2 at 37° C.
(§2) Cell culture medium ingredients: • DMEM, Supplier: Gibco, Catalog No. 11965-092; • FBS, Supplier: Gibco, Catalog No. 10099-141C, Concentration: 10%; • Pen/Strep, Supplier: Invitrogen, Catalog No. 15140-122, Concentration: 1%; • Zeocin, Supplier: Invitrogen, Catalog No. R25005, Concentration: 200 μg/mL; • Blasticidin S, Supplier: Invitrogen, Catalog No. R21001, Concentration: 5 μg/mL.
(§3) In general, the TRPC5-T478C cell line was passaged three times weekly. The dilution factor for each passage was 1:3. Once the cells reached about 80% confluence in the T-75 flask, the cell line was digested with trypsin for about 1 minute and the cell suspension was removed from the flask with a pipette. Depending on the dilution ratio, the removed cell suspension would be transferred to another T-75 flask containing cell culture medium. Note that in order to maintain the logarithmic growth of the cells, the confluence of the cells should be maintained at the subconfluent stage and the cells should be passaged once every 2 to 3 days depending on the proliferation rate of the cell line.
(1) Preparation of cell plate: the cells were separated according to the above-mentioned passaging and the cell density and viability were determined using a cell counter. The volume of the cell suspension was adjusted with a cell culture medium. After the density reached to the plating density, 1 μg/mL tetracycline was added to induce hTRPC5-T478C channel expression. The induced hTRPC5-T478C cells were then seeded onto poly-D-lysine (PDL)-coated 384-well plates at a density of 20000 cells/well (30 μL/well). Then the cells were cultured overnight in a cell culture incubator.
(2) Preparation of compound plate: the compounds were generally diluted with DMSO, prepared into a mother liquor and stored in a −20° C. refrigerator. A compound plating program was set on the ECHO processor, and the compounds were plated with ECHO according to the concentration gradient that was already set. In general, 9 concentrations were included with the highest concentration at 10 μM, 3-fold dilution, and 2 replicate wells. Englerin A was used as the channel agonist.
(3) On-machine testing: the cell plates and compound plates were prepared according to the above-mentioned methods. After the cell confluence of the cell plate reached 80%-90%, the cells were removed from the incubator and the testing started. Ca5 dye (Molecular Devices #R8185) was formulated with test buffer. After the cell plate culture medium was removed with Bravo, 25 μL of Ca5 dye was added to each well, and the plate was incubated for 1 hour. After 1 hour, the cell plate and compound plate were placed in FLIPR^TETRA (Molecular Devices, USA) for FLIPR detection.
Data analysis was performed using Excel 2013 (Microsoft, USA) software and GraphPad Prism 6.01 software. The maximum signal was generated by FLIPR software. Data analysis was performed using Excel (2013) and Prism 6.01. Data quality and data stability were controlled using S/B>2.50 and Z factor>0.50. The calculation formula was as follows: S/B=Avg100%/Avg0%; Z factor=1−(3*SD100%+3*SDO %)/|Avg100%-Avg0%.

TRPC5 [2] = settings: TRPC5 inhibition; cited from earlier work
TRPC5 [3] = settings: TRPC5 inhibition; cited from earlier work; remark: listed apart in the source
hTRPC5-T478C [4] = target: T1, hTRPC5-T478C; assay: hTRPC5-T478C patch clamp IC50 assay; assay type: cell-based; settings: hTRPC5-T478C-HEK cells, whole-cell patch clamp, Englerin A agonist
Protocol: as §1, §2, §3
(1) Extracellular fluid: sodium chloride (145 mmol/L), potassium chloride (4 mmol/L), magnesium chloride (1.5 mmol/L), glucose (10 mmol/L), hydroxyethyl piperazineethanesulfonic acid (HEPES, 10 mmol/L). The extracellular fluid was adjusted to pH 7.4 with NaOH, and the osmotic pressure was adjusted to about 305 mOsm/L with pure water or sucrose.
(2) Intracellular fluid: cesium chloride (140 mmol/L), ethylene glycol diethyl ether diamine tetraacetic acid (EGTA, 1 mmol/L), magnesium chloride (2 mmol/L), glucose (10 mmol/L), hydroxyethyl piperazineethanesulfonic acid (HEPES, 10 mmol/L). The intracellular fluid was adjusted to pH 7.2 with […], and the osmotic pressure was adjusted to about 295 mOsm/L with pure water or sucrose.
(3) The extracellular fluid was required to be formulated once a week, and the intracellular fluid was required to be subpackaged and stored at −20° C. after formulation.
Positive reference compounds Englerin A and 2-aminoethoxydiphenyl borate (2-APB) were dissolved in 100% DMSO and stored as a 10 mM working solution after formulation. The test compounds were dissolved in 100% DMSO and stored as a 10 mM working solution after formulation. The final concentration of DMSO in the test solution should be less than 0.3%.
Whole-cell patch clamping was performed at room temperature. The electrical signals recorded using an EPC 10 USB amplifier (HEKA Elektronik, Germany) were low-pass filtered at 3 kHz and finally recorded in PatchMaster 2×90.5 software (HEKA Elektronik, Germany). In this step, the quality control standards were that the cell high-resistance seal was formed at a value greater than 500 MOhms and the detection current was greater than 0.3 nA.
The recording electrode was a borosilicate glass capillary (GC150tF-10, Harvard Apparatus Co., UK), which was pulled by a vertical puller (NARISHIGE PC-10, Japan) and polished. In this step, the quality control standard was that the electrode resistance was between 2 to 5 MΩ.
During whole-cell patch clamp recordings, a continuous filling system (BT100-2J, LongerPump, China) was used to continuously perfuse extracellular fluid. The filling system was mounted on the stage of an upright microscope (FN—S2N, Nikon, Japan), and the filling tip was manually positioned under the microscope.
The voltage instructions for hTRPC5-T478C current amplitude detection were as follows: the cells were clamped as follows: the clamping potential changed in a stepped manner from −40 mV to −80 mV (duration: 50 ms); then the clamping voltage ramped up to +80 mV, and the whole process lasted for 200 ms; then clamping was performed at +80 mV for 50 ms, and finally, the voltage returned to the clamping potential of −40 mV. […]

Structure (SMILES) | IC50 (hTRPC5-T478C [1]) [µM] | IC50 (hTRPC5-T478C [4]) [µM] | LPS-induced proteinuria (TRPC5 [2]) | podocyte cytoskeletal remodeling (TRPC5 [3]) | protamine sulfate-induced podocyte injury (TRPC5 [3])
CC(O)c1nc2c(c(Sc3ccc(F)cc3C(F)(F)F)n1)CCN(c1cn[nH]c(=O)c1Cl)C2 (stereo not shown) [Compound WX014] | 0.012 |  |  |  | 
c1ccc(Cn2c(NCc3ccco3)nc3ccccc32)cc1 [AC1903] |  |  | significantly reduces | protects | inhibits
Cc1cc(N2CCCCC2)nc2ccccc12 [ML204] |  |  | significantly reduces | protects | inhibits

Continued, in another order:

IC50 (hTRPC5-T478C [1]) [µM] | IC50 (hTRPC5-T478C [4]) [µM] | Structure (SMILES) | LPS-induced proteinuria (TRPC5 [2]) | podocyte cytoskeletal remodeling (TRPC5 [3]) | protamine sulfate-induced podocyte injury (TRPC5 [3])
0.056 |  | O=c1[nH]ncc(N2CCc3c(ncnc3Sc3ccc(F)cc3Cl)C2)c1Cl [Compound WX017] |  |  | 
0.07 | 0.0894 | C=C(c1ccc(F)cc1C(F)(F)F)c1ncnc2c1CCN(c1cn[nH]c(=O)c1Cl)C2 [Compound WX003] |  |  | 
